Measurements reported in patent US12195427B2, “MASP-2 inhibitors and methods of use” (priority 2018, dated 2025).

Target: MASP-2 CCP2-SP (Homo sapiens (Human), UniProt O00187)
Test: MASP-2 co-crystallization, X-ray crystallography and structure analysis (H-bonds, van der Waals contacts);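 on Ligand-pharmacophore element distance, pharmacophore element C2: distance from averaged pharmacophore element to bound ligand; missing value means element absent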;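 on Ligand-pharmacophore element distance, pharmacophore element C3: distance from averaged pharmacophore element to bound ligand; missing value means element absent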;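 on Ligand-pharmacophore element distance, pharmacophore element C4: distance from averaged pharmacophore element to bound ligand; missing value means element absent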;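 on Ligand-pharmacophore element distance, pharmacophore element C5: distance from averaged pharmacophore element to bound ligand; missing value means element absent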
Parameters: van der Waals contact distance, MASP-2 HIS 483 atom CD2 / van der Waals contact distance, MASP-2 HIS 483 atom NE2 / van der Waals contact distance, SER 654 C to compound atom / van der Waals contact distance, SER 654 O to compound atom / van der Waals contact distance, TRP 655 C to compound atom / van der Waals contact distance, MASP-2 GLY 528 atom CA / van der Waals contact distance TRP 655 atom CZ3 / van der Waals contact distance TRP 655 atom N / van der Waals contact distance TRP 655 atom CE3 / van der Waals contact distance GLY 656 atom C / van der Waals contact distance GLY 656 atom CA / van der Waals contact distance GLY 656 atom O / van der Waals contact distance, MASP-2 TYR 607 atom CD1 / van der Waals contact distance, MASP-2 PRO 606 atom O / d(C3,CA1) / d(CA1,N1)2 / d(H4,O1) / d(H4,O2) / d(O1,O2) / d(CA1,O2) / d(CA6,O1) / d(CA6,O2) / d(CA1,C5) / d(O2,H3) / d(N2,C2) / d(CA5,N2) / d(N2,C4) / d(N2,C6) / d(N2,CA3) / d(N2,O3) / d(O4,H2): unit not given beside the values
Conditions: for Ligand-pharmacophore element distance, pharmacophore element C2 / Ligand-pharmacophore element distance, pharmacophore element C3 / Ligand-pharmacophore element distance, pharmacophore element C4 / Ligand-pharmacophore element distance, pharmacophore element C5 / Ligand-pharmacophore element distance, pharmacophore element C6 / Ligand-pharmacophore element distance, pharmacophore element C7 / Ligand-pharmacophore element distance, pharmacophore element CA1 / Ligand-pharmacophore element distance, pharmacophore element CA2 / Ligand-pharmacophore element distance, pharmacophore element CA3 / Ligand-pharmacophore element distance, pharmacophore element CA4 / Ligand-pharmacophore element distance, pharmacophore element CA5 / Ligand-pharmacophore element distance, pharmacophore element CA6: Table A4-1; for a(O1, O2, H3) / a(O1, O2, N2) / a(O2, N2, C2) / a(O2, N2, CA2): Table A6-2 pharmacophore angle
Text: This example illustrates the preparation of recombinant MASP-2 protein, based on UniProt O00187, human mannan-binding lectin serine protease 2. Expression constructs for human MASP-2 CCP2-SP and CCP2-SP-6HIS were generated for recombinant expression in E. coli cells.
Typically, crystallization hits were obtained by screening against […] 96-well crystallization reagent kits (GRAS6, GRAS2, Hampton Research; MORPHEUS, Molecular Dimensions; Wizard 1&2 Cryo, Rigaku Reagents) and crystal growth was inspected by optical microscopy. Crystals were used directly or further optimized for X-ray diffraction. Crystals were captured with cryogenic loops and dipped into liquid nitrogen directly or cryoprotected with a 20% glycerol in crystallization formulation before flash-cooling in liquid nitrogen.
Thereafter crystals are transferred once or twice for soaking within the crystallization solution containing the MASP-2 inhibitor.
Crystals were diffracted with synchrotron X-rays of […] and X-ray diffraction datasets were collected at beamlines SSRL BL9-2, BL14-1, BL12-2 as well as ALS sector 5 using Dectris Pilatus and Eiger detectors. Structures were determined by molecular replacement using portions of the structure 1Q3X as search models and partially refined with Buster 2.10.2 or Refmac 5.8. […] When multiple ligand poses were observed, for instance arising from multiple molecules in the asymmetric unit or refined dual poses within the same molecule, only one pose was selected and analyzed.
LigPlot+ calls these ‘nonbonded contacts’ or ‘hydrophobic contacts’. Despite the name, there are atom pairings that include possible H-bonds. Thus, in some instances, the Table A2 also contains H-bond interactions.

[1] = Table A5-1 pharmacophore: distance between elements, S2/S1 region
[2] = Table A5-2 pharmacophore distance, S3/S4 region
[3] = Table A7-1, between pharmacophore elements of the bound compound
[4] = Table A7-2, between pharmacophore elements of the bound compound
[5] = Table A8-6, nearest protein atom in cell to the left

MASP-2 CCP2-SP, sequence (O00187 445-686): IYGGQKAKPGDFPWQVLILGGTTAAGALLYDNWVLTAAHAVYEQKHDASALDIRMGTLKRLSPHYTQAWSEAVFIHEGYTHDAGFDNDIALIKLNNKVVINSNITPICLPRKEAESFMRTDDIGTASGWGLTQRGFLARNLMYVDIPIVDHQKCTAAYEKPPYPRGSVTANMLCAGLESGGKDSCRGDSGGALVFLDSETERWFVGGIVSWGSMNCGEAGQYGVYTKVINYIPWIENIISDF
MASP-2 CCP2-SP, sequence (O00187 364-432 partner): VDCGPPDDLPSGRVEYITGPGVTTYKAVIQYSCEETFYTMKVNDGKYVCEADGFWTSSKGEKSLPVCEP

Cc1nc(N)ccc1CNC(=O)C(C)NC(=O)C1CC(c2cccc3ccccc23)CCN1.Cl.Cl (centres unmarked) [1297_1]
Ligand-pharmacophore element distance, pharmacophore element C2: 0.34 | Ligand-pharmacophore element distance, pharmacophore element C3: 0.3 | Ligand-pharmacophore element distance, pharmacophore element C4: 0 | Ligand-pharmacophore element distance, pharmacophore element C5: 0 | Ligand-pharmacophore element distance, pharmacophore element C6: 0 | Ligand-pharmacophore element distance, pharmacophore element C7: 0 | Ligand-pharmacophore element distance, pharmacophore element CA1: 0.39 | Ligand-pharmacophore element distance, pharmacophore element CA2: 0.19 | Ligand-pharmacophore element distance, pharmacophore element CA3: 0 | Ligand-pharmacophore element distance, pharmacophore element CA4: 1.24 | Ligand-pharmacophore element distance, pharmacophore element CA5: 0 | Ligand-pharmacophore element distance, pharmacophore element CA6: 0 | d(C3,CA1) [1]: 2.87 | d(CA1,N1)2 [1]: 1.39 | d(CA1,O1) [1]: 4.35 | d(CA1,O2) [1]: 3.86 | d(H4,O1) [1]: 4.31 | d(H4,O2) [1]: 3.81 | d(O1,O2) [1]: 3.46 | d(N2,C2) [2]: 1.44 | d(N2,CA2) [2]: 5.68 | d(O2,H3) [2]: 4.23 | d(O2,N2) [2]: 2.71 | a(C3, CA1, O1) (Table A6-1 pharmacophore angle): 149.59 | a(CA1, O1, O2) (Table A6-1 pharmacophore angle): 107.14 | a(O1, O2, H4) (Table A6-1 pharmacophore angle): 130.08 | a(N1, CA1, O1) b) (Table A6-1 pharmacophore angle, Methyl-amino-pyridine compounds): 174.57 | a(O1, O2, H3): 144.22 | a(O1, O2, N2): 143.88 | a(O2, N2, C2): 130.88 | a(O2, N2, CA2): 156.06 | Pharmacophore torsion angle a(C3, CA1, O1, H4) [3]: 30.15 | Pharmacophore torsion angle a(H4, O1, O2, H3) [3]: 50.42 | Pharmacophore torsion angle a(H4, O1, O2, N2) [3]: 137.09 | Pharmacophore torsion angle a(N1, CA1, O1, H4) [3]: 26.85 | Pharmacophore torsion angle a(O1, H4, O2, CA1) [3]: −85.98 | Pharmacophore torsion angle a(O1, O2, N2, C2) [3]: 117.40 | Pharmacophore torsion angle a(O1, O2, N2, CA2) [4]: 131.38 | Pharmacophore torsion angle a(O1, O2, N2, CA4) [4]: 110.58

C[C@H](NC(=O)[C@H]1C[C@@H](c2ccccc2)CCN1)C(=O)NCc1ccc(N)nc1 (stereo in doubt) [compound 1025]
H-bond distance to MASP-2 ASP 627 atom OD2 (Table A1 (H-Bonds), ASP 627 OD2): 3.11 | H-bond distance to MASP-2 SER 628 atom O (Table A1 (H-Bonds), SER 628 O): 2.38 | van der Waals contact distance, MASP-2 HIS 483 atom CD2 (Table A2-1): 3.68 | van der Waals contact distance, MASP-2 HIS 483 atom CE1 (Table A2-1): 3.81 | van der Waals contact distance, MASP-2 PHE 529 atom CZ (Table A2-3): 3.88 | van der Waals contact distance, SER 654 O to compound atom (Table A2-12): 3.51 | van der Waals contact distance, TRP 655 CA to compound atom (Table A2-12): 3.68 | van der Waals contact distance, MASP-2 amino acid atom to compound atom (Table A2 section before Table A2-8): 3.84

N=C(N)c1ccc(CNC(=O)[C@@H]2CCN2C(=O)[C@H](NCC(=O)O)C2Cc3ccccc3C2)cc1 [compound 1129]
H-bond distance to MASP-2 ASP 627 atom OD1 (Table A1 (H-Bonds), ASP 627 OD1): 2.79 | H-bond distance to MASP-2 GLN 665 atom OE1 (Table A1 (H-Bonds), GLN 665 OE1): 2.76 | H-bond distance to MASP-2 GLY 656 atom N (Table A1 (H-Bonds), GLY 656 N): 2.93 | H-bond distance to MASP-2 SER 628 atom OG (Table A1 (H-Bonds), SER 628 OG): 2.86 | H-bond distance to MASP-2 SER 654 atom O (Table A1 (H-Bonds), SER 654 O): 2.84 | H-bond distance to MASP-2 SER 657 atom O (Table A1 (H-Bonds), SER 657 O): 2.92 | van der Waals contact distance, MASP-2 HIS 483 atom CD2 (Table A2-1): 3.75 | van der Waals contact distance, MASP-2 PHE 529 atom CE1 (Table A2-3): 3.52 | van der Waals contact distance, MASP-2 PRO 606 atom C (Table A2-4): 3.86 | van der Waals contact distance, MASP-2 amino acid atom to compound atom (Table A2-9 second part, ARG 630, AA atoms N, NE, NH1): 3.69 | van der Waals contact distance, VAL 653 CG1 to compound atom (Table A2-11): 3.9 | van der Waals contact distance GLY 656 atom C (Table A2-13, MASP-2 GLY 656 C): 3.54 | Ligand-pharmacophore element distance, pharmacophore element C2: 3.15 | Ligand-pharmacophore element distance, pharmacophore element C3: 0 | Ligand-pharmacophore element distance, pharmacophore element C4: 0 | Ligand-pharmacophore element distance, pharmacophore element C5: 0 | Ligand-pharmacophore element distance, pharmacophore element C6: 0 | Ligand-pharmacophore element distance, pharmacophore element C7: 0 | Ligand-pharmacophore element distance, pharmacophore element CA1: 0.35 | Ligand-pharmacophore element distance, pharmacophore element CA2: 0 | Ligand-pharmacophore element distance, pharmacophore element CA3: 0 | Ligand-pharmacophore element distance, pharmacophore element CA4: 0 | Ligand-pharmacophore element distance, pharmacophore element CA5: 0.67 | Ligand-pharmacophore element distance, pharmacophore element CA6: 0 | Ligand-pharmacophore element distance, pharmacophore element H1 (Table A4-2, element H1): 0 | Ligand-pharmacophore element distance, pharmacophore element H2 (Table A4-2, element H2): 0 | Ligand-pharmacophore element distance, pharmacophore element H3 (Table A4-2, element H3): 1.34 | Ligand-pharmacophore element distance, pharmacophore element H4 (Table A4-2, element H4): 3.79 | Ligand-pharmacophore element distance, pharmacophore element N1 (Table A4-2, element N1): 1.8 | Ligand-pharmacophore element distance, pharmacophore element N2 (Table A4-2, element N2): 1.8 | Ligand-pharmacophore element distance, pharmacophore element O1 (Table A4-2, element O1): 0.39 | Ligand-pharmacophore element distance, pharmacophore element O2 (Table A4-2, element O2): 0.58 | Ligand-pharmacophore element distance, pharmacophore element O3 (Table A4-2, element O3): 0 | Ligand-pharmacophore element distance, pharmacophore element O4 (Table A4-2, element O4): 0 | d(CA1,N1) [1]: 3.60 | d(CA1,O1) [1]: 4.47 | d(CA1,O2) [1]: 4.37 | d(H4,O1) [1]: 5.00 | d(H4,O2) [1]: 4.63 | d(O1,O2) [1]: 3.49 | d(CA5,N2) [2]: 5.54 | d(N2,C2) [2]: 2.76 | d(O2,H3) [2]: 2.83 | d(O2,N2) [2]: 3.19 | a(CA1, O1, O2) (Table A6-1 pharmacophore angle): 111.77 | a(O1, O2, H4) (Table A6-1 pharmacophore angle): 137.67 | A(N1, CA1, O1) a) (Table A6-1 pharmacophore angle, all compounds with protonatable center N1 except Methyl-amino-pyridine): 164.78 | a(O1, O2, H3): 122.63 | a(O1, O2, N2): 127.76 | a(O2, N2, C2): 110.31 | Pharmacophore torsion angle a(H4, O1, O2, H3) [3]: 104.70 | Pharmacophore torsion angle a(H4, O1, O2, N2) [3]: 133.45 | Pharmacophore torsion angle a(N1, CA1, O2, H4) [3]: −139.56 | Pharmacophore torsion angle a(O1, H4, O2, CA1) [3]: −65.27 | Pharmacophore torsion angle a(O1, O2, N2, C2) [3]: 95.54 | Pharmacophore torsion angle a(O1, O2, N2, CA5) [4]: 145.95 | Pharmacophore protein distance to MET_658 (first MET_658 column) (Table A8-6, 6th residue column, nearest protein atom in cell to the left): 2.85 | Pharmacophore protein distance to MET_658 (second MET_658 column) (Table A8-6, 9th residue column, nearest protein atom in cell to the left): 3.11 | Pharmacophore protein distance to GLY_528 [5]: 3.51 | Pharmacophore protein distance to PHE_529 [5]: 2.98 | Pharmacophore protein distance to PRO_608 [5]: 4.05 | Pharmacophore protein distance to SER_611 [5]: 2.58 | Pharmacophore protein distance to TRP_655 (Table A8-6, pharmacophore elements C6, CA3, O3, H1, nearest protein atom in cell to the left): 3.31

C[C@H](NC(=O)[C@H]1C[C@@H](c2ccccc2)CCN1)C(=O)NCc1cc(Cl)ccc1O.Cl [1078_16]
Ligand-pharmacophore element distance, pharmacophore element C2: 0.64 | Ligand-pharmacophore element distance, pharmacophore element C3: 0 | Ligand-pharmacophore element distance, pharmacophore element C4: 0 | Ligand-pharmacophore element distance, pharmacophore element C5: 0.42 | Ligand-pharmacophore element distance, pharmacophore element C6: 0 | Ligand-pharmacophore element distance, pharmacophore element C7: 0 | Ligand-pharmacophore element distance, pharmacophore element CA1: 1.49 | Ligand-pharmacophore element distance, pharmacophore element CA2: 0.49 | Ligand-pharmacophore element distance, pharmacophore element CA3: 0 | Ligand-pharmacophore element distance, pharmacophore element CA4: 0 | Ligand-pharmacophore element distance, pharmacophore element CA5: 0 | Ligand-pharmacophore element distance, pharmacophore element CA6: 0 | d(CA1,C5) [1]: 3.13 | d(CA1,O1) [1]: 4.42 | d(CA1,O2) [1]: 4.54 | d(CA1,O4) [1]: 2.74 | d(H4,O1) [1]: 2.20 | d(H4,O2) [1]: 2.69 | d(O1,O2) [1]: 3.11 | d(O4,H2) [1]: 0.97 | d(N2,C2) [2]: 1.49 | d(N2,CA2) [2]: 5.80 | d(O2,H3) [2]: 2.96 | d(O2,N2) [2]: 2.90 | a(C5, CA1, O1) (Table A6-1 pharmacophore angle): 161.46 | a(CA1, O1, O2) (Table A6-1 pharmacophore angle): 112.44 | a(CA1, O4, H2) (Table A6-1 pharmacophore angle): 126.68 | a(O1, CA1, O4) (Table A6-1 pharmacophore angle): 67.40 | a(O1, O2, H4) (Table A6-1 pharmacophore angle): 101.76 | a(O1, O2, H3): 140.06 | a(O1, O2, N2): 144.54 | a(O2, N2, C2): 122.62 | a(O2, N2, CA2): 154.31 | Pharmacophore torsion angle a(C5, CA1, O1, H4) [3]: 14.30 | Pharmacophore torsion angle a(H4, O1, O2, H3) [3]: −119.50 | Pharmacophore torsion angle a(H4, O1, O2, N2) [3]: −111.94 | Pharmacophore torsion angle a(O1, H4, O2, CA1) [3]: −58.07 | Pharmacophore torsion angle a(O1, O2, N2, C2) [3]: 136.30 | Pharmacophore torsion angle a(O1, O2, N2, CA2) [4]: 139 28
